Values of other authors, collected in patent US8158153B2, “Nanoparticulate bisphosphonate compositions” (Alkermes Pharma Ireland Limited, priority 2005, dated 2012).
Entries after “also recorded” stand apart in the source; their conditions may differ. Counter-ions that a name gives are not always drawn.

Experiments:
[1] = 1% solution in distilled water
[2] = patients; clinical use

| Compound | pH of a 1% solution [1] | side effects / adverse effects [2] | solubility in organic solvents (organic solvents) | solubility in water |
| --- | --- | --- | --- | --- |
| NCCC(O)(P(=O)([O-])O)P(=O)([O-])O.[Na+].[Na+] [Pamidronate disodium, phosphonic acid (3-amino-1-hydroxypropylidene) bis-, disodium salt, pentahydrate] | approximately 8.3 | esophageal ulcers; also recorded: pain at the site of catheter insertion; also recorded: gastrointestinal pain | – | – |
| CCCCCN(C)CCC(O)(P(=O)([O-])O)P(=O)(O)O.O.[Na+] [Ibandronate sodium, 3-(N-methyl-N-pentyl) amino-1-hydroxypropane-1,1-diphosphonic acid, monosodium salt, monohydrate] | – | gastrointestinal irritation | practically insoluble | freely soluble |
| O=P(O)(O)C(O)(Cc1cccnc1)P(=O)(O)O [Risedronate sodium, [1-hydroxy-2-(3-pyridinyl)ethylidene]bis[phosphonic acid] monosodium salt] | – | gastrointestinal irritation | – | – |
| CC(O)(P(=O)([O-])[O-])P(=O)(O)O.[Na+].[Na+] [etidronate disodium, disodium salt of (1-hydroxyethylidene) diphosphonic acid] | – | – | – | highly soluble |
